Measurements taken from ChEMBL document CHEMBL5725495, “Heterocyclylamines as PI3K inhibitors” (2017).

Assay: A2 PI3Kdelta Scintillation Proximity Assay: Lipid kinase substrate, phosphoinositol-4,5-bisphosphate (PIP2), are purchased from Echelon Biosciences (Salt Lake City, Utah). PI3K isoforms α, β, δ and γ are purchased from Millipore (Bedford, Mass.). ATP, MgCl2, DTT, EDTA, MOPS and CHAPS are purchased from Sigma-Aldrich (St. Louis, Mo.). The kinase reaction are conducted in clear-bottom 96-well plate from Thermo Fisher Scientific in a final volume of 24 μL. Inhibitors are first diluted serially in DMSO and added to the plate wells before the addition of other reaction components. The final concentration of DMSO in the assay is 0.5%. The PI3K assays are carried out at room temperature in 20 mM MOPS, pH 6.7, 10 mM MgCl2, 5 mM DTT and CHAPS 0.03%. The reaction mixture is prepared containing 50 μM PIP2, kinase and varying concentration of inhibitors. Reactions are initiated by the addition of ATP containing 2.2 μCi [γ-33P]ATP to a final concentration of 1000 μM. The final concentration of PI3K isoforms α, β, δ and γ in the assay were 1.3, 9.4, 2.9 and 10.8 nM, respectively. Reactions are incubated for 180 minutes and terminated by the addition of 100 μL of 1 M potassium phosphate pH 8.0, 30 mM EDTA quench buffer. A 100 μL aliquot of the reaction solution are then transferred to 96-well Millipore MultiScreen IP 0.45 μm PVDF filter plate (The filter plate is prewetted with 200 μL 100% ethanol, distilled water, and 1 M potassium phosphate pH 8.0, respectively). The filter plate is aspirated on a Millipore Manifold under vacuum and washed with 18×200 μL wash buffer containing 1 M potassium phosphate pH 8.0 and 1 mM ATP. After drying by aspiration and blotting, the plate is air dried in an incubator at 37° C. overnight. Packard TopCount adapter (Millipore) is then attached to the plate followed with addition of 120 μL Microscint 20 scintillation cocktail (Perkin Elmer) in each well. After the plate sealing, the radioactivity of the product is determined by scintillation counting on Topcount (Perkin-Elmer). IC50 determination is performed by fitting the curve of percent control activity versus the log of the inhibitor concentration using the GraphPad Prism 3.0 software.
Design: species or system Homo sapiens

| IC50 [nM] | Compound |
| --- | --- |
| < 10 | CCOc1c([C@H](C)n2nc(C)c3c(N)ncnc32)cc(Cl)c(C#N)c1C1CN(CCOC)C1 |
| < 10 | COc1c(C(C)n2cc(C)c3c(N)ncnc32)cc(Cl)c(C#N)c1C1CN(C(C)C)C1 (stereo not drawn) |
| < 10 | COc1c(C(C)n2nc(C(F)F)c3c(N)ncnc32)cc(C#N)c(C)c1C1CN(C[C@H](C)O)C1 (stereo partly drawn) |
| < 10 | CCOc1c(C(C)n2nc(C)c3c(N)ncnc32)cc(Cl)c(F)c1C1CN(C[C@H](C)O)C1 (stereo partly drawn) |
| < 10 | COc1c(C(C)n2nc(C)c3c(N)ncnc32)cc(Cl)c(C#N)c1C1CN(CCO)C1 (stereo not drawn) |
| < 10 | COc1c([C@H](C)n2nc(C)c3c(N)ncnc32)cc(Cl)c(C#N)c1C1CN(CC2CCOC2)C1 (stereo partly drawn) |
| < 10 | COc1c([C@@H](C)n2nc(C(F)F)c3c(N)ncnc32)cc(Cl)c(F)c1C1CN(C)C1 |
| < 10 | COc1c([C@@H](C)n2nc(C)c3c(N)ncnc32)cc(Cl)c(C#N)c1C1CN(C2CCOC2)C1 (stereo partly drawn) |
| < 10 | CCOc1c([C@H](C)n2nc(C)c3c(N)ncnc32)cc(Cl)c(C#N)c1C1CN(C(C)CO)C1 (stereo partly drawn) |
| < 10 | COc1c([C@@H](C)n2nc(C)c3c(N)ncnc32)cc(Cl)c(C#N)c1C1CN(CC2CCOC2)C1 (stereo partly drawn) |
| < 10 | COc1c([C@@H](C)n2nc(C(F)F)c3c(N)ncnc32)cc(Cl)c(F)c1C1CN(CCO)C1 (single isomer, unassigned) |
| < 10 | CCOc1c([C@@H](C)n2nc(C)c3c(N)ncnc32)cc(Cl)c(C#N)c1C1CN(C(C)CO)C1 (stereo partly drawn) |
| < 10 | CCOc1c(C(C)n2nc(C)c3c(N)ncnc32)cc(Cl)c(C)c1-c1ccc(C(=O)N(C)C)nc1 (stereo not drawn) |
| < 10 | COc1c(C(C)n2nc(C)c3c(N)ncnc32)cc(Cl)c(C)c1C1CN(C[C@H](C)O)C1 (stereo partly drawn) |
| < 10 | CCOc1c([C@@H](C)n2nc(C)c3c(N)ncnc32)cc(Cl)c(F)c1C1CN(C(C)C)C1 (single isomer, unassigned) |
| < 10 | COc1c([C@@H](C)n2nc(C)c3c(N)ncnc32)cc(Cl)c(C#N)c1C1CN(C(C)CO)C1 (stereo partly drawn) |
| < 10 | COc1c([C@H](C)n2nc(C)c3c(N)ncnc32)cc(Cl)c(C#N)c1C1CN(C(C)CO)C1 (stereo partly drawn) |

| Compound | IC50 [nM] |
| --- | --- |
| COc1c(C(C)n2nc(C)c3c(N)ncnc32)cc(Cl)c(C)c1-c1ccc(C(=O)N(C)C)nc1 (stereo not drawn) | < 10 |
